Assay results reported in US7563792B2, “Biguanide and dihydrotriazine derivatives” (priority 2002, dated 2009).

Key:
[1] = tested on: Plasmodium berghei (KBG strain); assay: Mouse malaria model (modified Thomson model), percent survival; type: in vivo, CD-1 mice; settings: twice a day for 3 days from day 3 post infection, orally or subcutaneously (route not stated), P. berghei infected mice
Description: Seven (7) mice are typically used in each experimental group. The mice are housed 3 to 4 per cage and are maintained at a temperature of […] with a 12-hour day light cycle. The mice are fed a standard Ralston Purina® mouse chow and given water ad. lib. Their cages and water bottles were changed twice a week.
Preparation of the test compounds oral administration involved grinding the material with a mortar and pestle before diluting in 0.5% hydroxyethylcellulose-Tween 80 (polyoxyethylene (20) sorbitan mono-oleate) for oral administration. For subcutaneous administration, the test compounds were suspended in peanut oil.
The mice were infected intraperitoneally with 50,000 red blood cells infected with a drug-sensitive strain of Plasmodium berghei (KBG strain) on day 0. The inoculum was obtained from a donor mouse having a parasitemia between 5% and 10%.
The compounds were administered according to the weight of the mice. The mice were weighed each day before the drugs were administered. Test compounds are given in a volume of 10 ml/kg of body weight. Compounds were administered either orally or subcutaneously twice a day (6 hours apart) for 3 days starting on the 3rd day post infection. Blood films were taken on day 6 post-infection and twice weekly for 30 days. The level of parasites (parasitemia) was determined from the Giemsa stained blood films.
Antimalarial activity was quantified by a percent survival calculated for each treated group on Day 31.

[2] = tested on: Mycobacterium avium; assay: In vitro MIC against Mycobacterium avium isolates, microtiter plate, turbidity; type: cell-based; settings: 18 to 21 days
[3] = tested on: Mycobacterium tuberculosis; assay: In vitro MIC against Mycobacterium tuberculosis, microtiter plate, turbidity; type: cell-based; settings: Mycobacterium tuberculosis strain Erdmann; 37° C., 18 to 21 days
Description: Antituberculosis activities were assessed in vitro using the biologically active dihydrotriazine metabolites of the imidodicarbonimidic diamides. The assay methodology is detailed as follows:
To tissue culture treated 96-well microtiter plates were added 20 μl of a solution of test compound. The plates were allowed to dry in an incubator at a temperature between 50° to 60° C. for 20 to 30 minutes. Then the plates were subjected to UV light for 15 minutes to kill bacteria. The plates were generally used within 2-3 days of being made. To each well was added 100 μl of culture broth and the appropriate strain of Mycobacterium tuberculosis or Mycobacterium avium. The plates were then incubated at 37° C. for between 18 days to 21 days. Growth was assessed by turbidity measurement and MICs reported in μg/ml.

1-(3-(4-trifluoromethoxyphenoxy)propyloxy)-5-isopropyl biguanide hemisuccinate [Compound of Example 5]
% SURVIVAL AT DAY 31 ([1]; dose 4 mg/kg): 0%
% SURVIVAL AT DAY 31 ([1]; dose 8 mg/kg): 14%
% SURVIVAL AT DAY 31 ([1]; dose 16 mg/kg): 86%
% SURVIVAL AT DAY 31 ([1]; dose 32 mg/kg): 100%
% SURVIVAL AT DAY 31 ([1]; dose 64 mg/kg): 100%

Cl.N=C(NOCCCOc1ccc(OC(F)(F)F)cc1)NC(=N)NC1CC1 [Compound of Example 6, 1-(3-(4-trifluoromethoxyphenoxy)propyloxy)-5-cyclopropylbiguanide hydrochloride]
% SURVIVAL AT DAY 31 ([1]; dose 4 mg/kg): 0%
% SURVIVAL AT DAY 31 ([1]; dose 8 mg/kg): 14%
% SURVIVAL AT DAY 31 ([1]; dose 16 mg/kg): 43%
% SURVIVAL AT DAY 31 ([1]; dose 32 mg/kg): 71%
% SURVIVAL AT DAY 31 ([1]; dose 64 mg/kg): 100%

CC1(C)NC(=N)NC(=N)N1OCCCOc1ccc(OC(F)(F)F)cc1.Cl [Metabolite of Compound of Example 5, 6,6-Dimethyl-1-[3-(4-trifluoromethoxy-phenoxy)-propoxy][1,3,5]triazinane-2,4-diylidenediamine hydrochloride]
MIC ([2]; Mycobacterium avium strain 101, 37° C.): 3.1 µg/mL
MIC ([2]; Mycobacterium avium strain 3404-4, 37° C.): 0.6 ± 0.3 µg/mL
MIC ([2]; Mycobacterium avium strain Farino, 37° C.): 1 ± 0.85 µg/mL
MIC ([2]; Mycobacterium avium strain LPR, 37° C.): 37.5 ± 17.7 µg/mL
MIC [3]: 19 µg/mL
